For experiment [1], the target named is T1, S-layer protein SpaA (SpaASLH) (Paenibacillus alvei, UniProt C1JZ07).
T1 construct: SLH domain trimer, amino acids 21–193, Ser-Gly-Ser linker and C-terminal His6-tag
T1 sequence (C1JZ07 21-193): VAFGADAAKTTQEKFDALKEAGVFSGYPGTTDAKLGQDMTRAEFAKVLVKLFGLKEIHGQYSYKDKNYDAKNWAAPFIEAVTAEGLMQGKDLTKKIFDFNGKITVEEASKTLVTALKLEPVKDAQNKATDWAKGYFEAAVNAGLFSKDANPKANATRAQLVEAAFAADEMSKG
The experiment is described as follows: co-crystal structure (no binding detected by ITC). A general note: In ITC the heat of successive injections is recorded.

The target of experiment [2] is T2, S-layer protein SpaA (SpaASLH/G46A/G109A) (Paenibacillus alvei, UniProt C1JZ07, G46A/G109A).
T2 construct: SLH domain trimer, amino acids 21–193, Ser-Gly-Ser linker and C-terminal His6-tag
T2 sequence (C1JZ07 21-193 G46A/G109A): T1 sequence (C1JZ07 21-193)
The experiment is described as follows: co-crystal structure (no binding detected by ITC).

In experiment [3] the target is T1, S-layer protein SpaA (SpaASLH). Nature of the experiment: ITC and co-crystal structures. It counts as binding.
In experiment [4] the target is T3, S-layer protein SpaA (SpaASLH/G109A) (Paenibacillus alvei, UniProt C1JZ07, G109A).
T3 construct: SLH domain trimer, amino acids 21–193, Ser-Gly-Ser linker and C-terminal His6-tag
The experiment is described as follows: ITC and co-crystal structure. It counts as binding.

Regarding `CO[C@@H]1O[C@@H]2CO[C@](C)(C(=O)O)O[C@H]2[C@H](O[C@@H]2O[C@H](CO)[C@@H](O)[C@H](O)[C@H]2NC(C)=O)[C@@H]1NC(C)=O` [disaccharide, β-D-GlcNAc-(1 → 3)-4,6-Pyr-β-D-ManNAcOMe], in experiment [1], the “co-crystal structure (no binding detected by ITC)” value was “Despite the lack of binding measured by ITC, a co-crystal structure with the internal disaccharide was obtained”.
By Kd is commonly meant the free concentration of one partner at which half of the binding sites on the other are occupied at equilibrium, for simple one-to-one binding. The low end stands for a tighter complex, the high end for a looser complex. Take `CO[C@@H]1O[C@@H]2CO[C@](C)(C(=O)O)O[C@H]2[C@H](O)[C@@H]1NC(C)=O` [monosaccharide (M), 4,6-Pyr-β-D-ManNAcOMe]: the “co-crystal structure (no binding detected by ITC)” value in experiment [2] is listed as “Despite the lack of binding detected by ITC, ligand is again observed bound in the G2 pocket”. The figures for the Kd in experiment [3] and in experiment [4] were 29 nM and 226 nM, respectively.

(Values after PMC6081394, “Structural basis of cell wall anchoring by SLH domains in Paenibacillus alvei” (Nature Communications, 2018).)
